Test results: ChEMBL document CHEMBL1201862, “PubChem BioAssay data set” (2004)
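Five concentrations, 48 hours, 96-well plates. GI50 = concentration required for 50% inhibition of growth.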 The source made the active and inactive calls. Cut-off read from the data, not from the text of the source: active = GI50 up to about 1.1 µM and inactive = higher.

Assays:
Experiment in all cases: DTP human tumour cell line panel, 48 h
[1] = test system: HT-29
[2] = test system: Hs-578T
[3] = test system: TK-10
[4] = test system: A498
[5] = test system: A549
[6] = test system: HL-60
[7] = test system: OVCAR-8
[8] = test system: K562
[9] = test system: 786-0
[10] = test system: M14
[11] = test system: CCRF-CEM
[12] = test system: NCI-H23
[13] = test system: MDA-MB-435
[14] = test system: SF-295
[15] = test system: UACC-257
[16] = test system: NCI-H460
[17] = test system: UO-31
[18] = test system: SR
[19] = test system: UACC-62
[20] = test system: EKVX
[21] = test system: LOX IMVI
[22] = test system: SNB-75
[23] = test system: IGROV-1
[24] = test system: Malme-3M
[25] = test system: SK-MEL-5
[26] = test system: SK-MEL-2
[27] = test system: OVCAR-4
[28] = test system: COLO 205
[29] = test system: NCI-H522
[30] = test system: OVCAR-3
[31] = test system: SK-OV-3
[32] = test system: HCT-116
[33] = test system: MDA-MB-231
[34] = test system: MCF7
[35] = test system: SNB-19
[36] = test system: BT-549
[37] = test system: SK-MEL-28
[38] = test system: CAKI-1
[39] = test system: KM12
[40] = test system: ACHN
[41] = test system: HOP-62
[42] = test system: NCI-H226
[43] = test system: RXF 393
[44] = test system: SF-539
[45] = test system: OVCAR-5
[46] = test system: PC-3
[47] = test system: NCI/ADR-RES
[48] = test system: SW-620
[49] = test system: T47D
[50] = test system: U-251
[51] = test system: MDA-N
[52] = test system: MOLT-4
[53] = test system: HCT-15
[54] = test system: RPMI-8226
[55] = test system: SF-268
[56] = test system: HOP-92

CC1CC(c2ccccc2)Nc2nc3ccccc3n21 (stereo unspecified)
GI50 [1]: 39.1 µM (inactive) | GI50 [2]: > 100 µM (inactive) | GI50 [3]: > 100 µM (inactive) | GI50 [4]: > 100 µM (inactive) | GI50 [5]: > 100 µM (inactive) | GI50 [6]: > 100 µM (inactive) | GI50 [7]: > 100 µM (inactive) | GI50 [8]: > 100 µM (inactive) | GI50 [9]: > 100 µM (inactive) | GI50 [10]: > 100 µM (inactive) | GI50 [11]: > 100 µM (inactive) | GI50 [12]: > 100 µM (inactive) | GI50 [13]: > 100 µM (inactive) | GI50 [14]: > 100 µM (inactive) | GI50 [15]: > 100 µM (inactive) | GI50 [16]: > 100 µM (inactive) | GI50 [17]: 59.8 µM (inactive) | GI50 [18]: > 100 µM (inactive) | GI50 [19]: > 100 µM (inactive) | GI50 [20]: > 100 µM (inactive) | GI50 [21]: > 100 µM (inactive) | GI50 [22]: > 100 µM (inactive) | GI50 [23]: > 100 µM (inactive) | GI50 [24]: > 100 µM (inactive) | GI50 [25]: > 100 µM (inactive) | GI50 [26]: > 100 µM (inactive) | GI50 [27]: > 100 µM (inactive) | GI50 [28]: > 100 µM (inactive) | GI50 [29]: > 100 µM (inactive) | GI50 [30]: > 100 µM (inactive) | GI50 [31]: > 100 µM (inactive) | GI50 [32]: 66.4 µM (inactive) | GI50 [33]: > 100 µM (inactive) | GI50 [34]: > 100 µM (inactive) | GI50 [35]: > 100 µM (inactive) | GI50 [36]: > 100 µM (inactive) | GI50 [37]: > 100 µM (inactive) | GI50 [38]: > 100 µM (inactive) | GI50 [39]: > 100 µM (inactive) | GI50 [40]: > 100 µM (inactive) | GI50 [41]: > 100 µM (inactive) | GI50 [42]: > 100 µM (inactive) | GI50 [43]: > 100 µM (inactive) | GI50 [44]: > 100 µM (inactive) | GI50 [45]: > 100 µM (inactive) | GI50 [46]: > 100 µM (inactive) | GI50 [47]: > 100 µM (inactive) | GI50 [48]: > 100 µM (inactive) | GI50 [49]: > 100 µM (inactive) | GI50 [50]: > 100 µM (inactive) | GI50 [51]: > 100 µM (inactive) | GI50 [52]: > 100 µM (inactive) | GI50 [53]: > 100 µM | GI50 [54]: > 100 µM (inactive) | GI50 [55]: > 100 µM (inactive) | GI50 [56]: > 100 µM (inactive)
